{"source": "PubChem BioAssay (NCI)", "assay_in_all_cases": "inhibition of tumour cell growth, NCI panel, 48 h", "key": {"SN12C renal": {"tested_on": "SN12C renal"}, "LOX IMVI melanoma": {"tested_on": "LOX IMVI melanoma"}, "HCT-116 colon": {"tested_on": "HCT-116 colon"}, "HOP-92 NSCLC": {"tested_on": "HOP-92 NSCLC"}, "OVCAR-5 ovarian": {"tested_on": "OVCAR-5 ovarian"}, "SF-268 CNS": {"tested_on": "SF-268 CNS"}, "NCI-H522 lung": {"tested_on": "NCI-H522 lung"}, "MDA-MB-231 breast": {"tested_on": "MDA-MB-231 breast"}, "M14 melanoma": {"tested_on": "M14 melanoma"}, "T-47D breast": {"tested_on": "T-47D breast"}, "786-0 renal": {"tested_on": "786-0 renal"}, "OVCAR-3 ovarian": {"tested_on": "OVCAR-3 ovarian"}, "SW-620 colon": {"tested_on": "SW-620 colon"}, "IGROV1 ovarian": {"tested_on": "IGROV1 ovarian"}, "UACC-257 melanoma": {"tested_on": "UACC-257 melanoma"}, "MDA-MB-435": {"tested_on": "MDA-MB-435"}, "PC-3 prostate": {"tested_on": "PC-3 prostate"}, "MOLT-4 leukemia": {"tested_on": "MOLT-4 leukemia"}, "KM12 colon": {"tested_on": "KM12 colon"}, "TK-10 renal": {"tested_on": "TK-10 renal"}, "SK-MEL-5 melanoma": {"tested_on": "SK-MEL-5 melanoma"}, "OVCAR-8 ovarian": {"tested_on": "OVCAR-8 ovarian"}, "HT29 colon": {"tested_on": "HT29 colon"}, "U251 CNS": {"tested_on": "U251 CNS"}, "ACHN renal": {"tested_on": "ACHN renal"}, "SK-MEL-2 melanoma": {"tested_on": "SK-MEL-2 melanoma"}, "A549 NSCLC": {"tested_on": "A549 NSCLC"}, "CCRF-CEM leukemia": {"tested_on": "CCRF-CEM leukemia"}, "EKVX NSCLC": {"tested_on": "EKVX NSCLC"}, "HL-60(TB) leukemia": {"tested_on": "HL-60(TB) leukemia"}, "UO-31 renal": {"tested_on": "UO-31 renal"}, "NCI-H460 lung": {"tested_on": "NCI-H460 lung"}, "BT-549 breast": {"tested_on": "BT-549 breast"}, "HS 578T breast": {"tested_on": "HS 578T breast"}, "DU-145 prostate": {"tested_on": "DU-145 prostate"}, "SF-539 CNS": {"tested_on": "SF-539 CNS"}, "SK-OV-3 ovarian": {"tested_on": "SK-OV-3 ovarian"}, "A498 renal": {"tested_on": "A498 renal"}, "NCI-H23 lung": {"tested_on": "NCI-H23 lung"}, "SK-MEL-28 melanoma": {"tested_on": "SK-MEL-28 melanoma"}, "RXF 393 renal": {"tested_on": "RXF 393 renal"}, "NCI/ADR-RES ovarian": {"tested_on": "NCI/ADR-RES ovarian"}, "MCF7 breast": {"tested_on": "MCF7 breast"}, "HOP-62 NSCLC": {"tested_on": "HOP-62 NSCLC"}, "SR leukemia": {"tested_on": "SR leukemia"}, "NCI-H226 lung": {"tested_on": "NCI-H226 lung"}, "OVCAR-4 ovarian": {"tested_on": "OVCAR-4 ovarian"}, "SNB-19 CNS": {"tested_on": "SNB-19 CNS"}}, "note": "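Exposure lasted 48 hours, with cells grown in 96-well plates and compounds tested at five concentrations. GI50: concentration for 50% inhibition of growth. TGI: total growth inhibition.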", "data": [{"smiles": "COc1cc(-c2nn(-c3ccc(NC(=O)NCCNS(=O)(=O)c4ccc(F)cc4)cc3)cc2-c2ccncc2)ccc1Cl", "values": [{"measurement": "GI50", "setting": "SN12C renal", "value": 733, "unit": "nM"}, {"measurement": "TGI", "setting": "SN12C renal", "value": 8.44, "unit": "µM"}, {"measurement": "GI50", "setting": "LOX IMVI melanoma", "value": 556, "unit": "nM"}, {"measurement": "TGI", "setting": "LOX IMVI melanoma", "value": 2880, "unit": "nM"}, {"measurement": "GI50", "setting": "HCT-116 colon", "value": 339, "unit": "nM"}, {"measurement": "TGI", "setting": "HCT-116 colon", "value": 1770, "unit": "nM"}, {"measurement": "GI50", "setting": "HOP-92 NSCLC", "value": 1450, "unit": "nM"}, {"measurement": "TGI", "setting": "HOP-92 NSCLC", "value": 5.91, "unit": "µM"}, {"measurement": "GI50", "setting": "OVCAR-5 ovarian", "value": 1210, "unit": "nM"}, {"measurement": "TGI", "setting": "OVCAR-5 ovarian", "value": "> 100", "unit": "µM"}, {"measurement": "GI50", "setting": "SF-268 CNS", "value": 629, "unit": "nM"}, {"measurement": "TGI", "setting": "SF-268 CNS", "value": 5, "unit": "µM"}, {"measurement": "GI50", "setting": "NCI-H522 lung", "value": 295, "unit": "nM"}, {"measurement": "TGI", "setting": "NCI-H522 lung", "value": 2700, "unit": "nM"}, {"measurement": "GI50", "setting": "MDA-MB-231 breast", "value": 650, "unit": "nM"}, {"measurement": "TGI", "setting": "MDA-MB-231 breast", "value": 3.38, "unit": "µM"}, {"measurement": "GI50", "setting": "M14 melanoma", "value": 324, "unit": "nM"}, {"measurement": "TGI", "setting": "M14 melanoma", "value": 1530, "unit": "nM"}, {"measurement": "GI50", "setting": "T-47D breast", "value": 733, "unit": "nM"}, {"measurement": "TGI", "setting": "T-47D breast", "value": 5.56, "unit": "µM"}, {"measurement": "GI50", "setting": "786-0 renal", "value": 901, "unit": "nM"}, {"measurement": "TGI", "setting": "786-0 renal", "value": 6.3, "unit": "µM"}, {"measurement": "GI50", "setting": "OVCAR-3 ovarian", "value": 246, "unit": "nM"}, {"measurement": "TGI", "setting": "OVCAR-3 ovarian", "value": 665, "unit": "nM"}, {"measurement": "GI50", "setting": "SW-620 colon", "value": 529, "unit": "nM"}, {"measurement": "TGI", "setting": "SW-620 colon", "value": 12.7, "unit": "µM"}, {"measurement": "GI50", "setting": "IGROV1 ovarian", "value": 795, "unit": "nM"}, {"measurement": "TGI", "setting": "IGROV1 ovarian", "value": 8.4, "unit": "µM"}, {"measurement": "GI50", "setting": "UACC-257 melanoma", "value": 1570, "unit": "nM"}, {"measurement": "TGI", "setting": "UACC-257 melanoma", "value": 4.73, "unit": "µM"}, {"measurement": "GI50", "setting": "MDA-MB-435", "value": 170, "unit": "nM"}, {"measurement": "TGI", "setting": "MDA-MB-435", "value": 418, "unit": "nM"}, {"measurement": "GI50", "setting": "PC-3 prostate", "value": 453, "unit": "nM"}, {"measurement": "TGI", "setting": "PC-3 prostate", "value": 4.75, "unit": "µM"}, {"measurement": "GI50", "setting": "MOLT-4 leukemia", "value": 583, "unit": "nM"}, {"measurement": "TGI", "setting": "MOLT-4 leukemia", "value": 3.99, "unit": "µM"}, {"measurement": "GI50", "setting": "KM12 colon", "value": 390, "unit": "nM"}, {"measurement": "TGI", "setting": "KM12 colon", "value": 2030, "unit": "nM"}, {"measurement": "GI50", "setting": "TK-10 renal", "value": 1890, "unit": "nM"}, {"measurement": "TGI", "setting": "TK-10 renal", "value": 6.33, "unit": "µM"}, {"measurement": "GI50", "setting": "SK-MEL-5 melanoma", "value": 453, "unit": "nM"}, {"measurement": "TGI", "setting": "SK-MEL-5 melanoma", "value": 1680, "unit": "nM"}, {"measurement": "GI50", "setting": "OVCAR-8 ovarian", "value": 588, "unit": "nM"}, {"measurement": "TGI", "setting": "OVCAR-8 ovarian", "value": 5.38, "unit": "µM"}, {"measurement": "GI50", "setting": "HT29 colon", "value": 318, "unit": "nM"}, {"measurement": "TGI", "setting": "HT29 colon", "value": 1230, "unit": "nM"}, {"measurement": "GI50", "setting": "U251 CNS", "value": 409, "unit": "nM"}, {"measurement": "TGI", "setting": "U251 CNS", "value": 2490, "unit": "nM"}, {"measurement": "GI50", "setting": "ACHN renal", "value": 2210, "unit": "nM"}, {"measurement": "TGI", "setting": "ACHN renal", "value": 8.06, "unit": "µM"}, {"measurement": "GI50", "setting": "SK-MEL-2 melanoma", "value": 553, "unit": "nM"}, {"measurement": "TGI", "setting": "SK-MEL-2 melanoma", "value": 2620, "unit": "nM"}, {"measurement": "GI50", "setting": "A549 NSCLC", "value": 1920, "unit": "nM"}, {"measurement": "TGI", "setting": "A549 NSCLC", "value": 23.1, "unit": "µM"}, {"measurement": "GI50", "setting": "CCRF-CEM leukemia", "value": 459, "unit": "nM"}, {"measurement": "TGI", "setting": "CCRF-CEM leukemia", "value": "> 100", "unit": "µM"}, {"measurement": "GI50", "setting": "EKVX NSCLC", "value": 1320, "unit": "nM"}, {"measurement": "TGI", "setting": "EKVX NSCLC", "value": "> 100", "unit": "µM"}, {"measurement": "GI50", "setting": "HL-60(TB) leukemia", "value": 391, "unit": "nM"}, {"measurement": "TGI", "setting": "HL-60(TB) leukemia", "value": 2260, "unit": "nM"}, {"measurement": "GI50", "setting": "UO-31 renal", "value": 2380, "unit": "nM"}, {"measurement": "TGI", "setting": "UO-31 renal", "value": "> 100", "unit": "µM"}, {"measurement": "GI50", "setting": "NCI-H460 lung", "value": 387, "unit": "nM"}, {"measurement": "TGI", "setting": "NCI-H460 lung", "value": 1510, "unit": "nM"}, {"measurement": "GI50", "setting": "BT-549 breast", "value": 782, "unit": "nM"}, {"measurement": "TGI", "setting": "BT-549 breast", "value": 4.95, "unit": "µM"}, {"measurement": "GI50", "setting": "HS 578T breast", "value": 453, "unit": "nM"}, {"measurement": "TGI", "setting": "HS 578T breast", "value": 5.98, "unit": "µM"}, {"measurement": "GI50", "setting": "DU-145 prostate", "value": 387, "unit": "nM"}, {"measurement": "TGI", "setting": "DU-145 prostate", "value": 10.8, "unit": "µM"}, {"measurement": "GI50", "setting": "SF-539 CNS", "value": 281, "unit": "nM"}, {"measurement": "TGI", "setting": "SF-539 CNS", "value": 965, "unit": "nM"}, {"measurement": "GI50", "setting": "SK-OV-3 ovarian", "value": 705, "unit": "nM"}, {"measurement": "TGI", "setting": "SK-OV-3 ovarian", "value": 8.15, "unit": "µM"}, {"measurement": "GI50", "setting": "A498 renal", "value": 389, "unit": "nM"}, {"measurement": "TGI", "setting": "A498 renal", "value": 2180, "unit": "nM"}, {"measurement": "GI50", "setting": "NCI-H23 lung", "value": 632, "unit": "nM"}, {"measurement": "TGI", "setting": "NCI-H23 lung", "value": 5.18, "unit": "µM"}, {"measurement": "GI50", "setting": "SK-MEL-28 melanoma", "value": 1420, "unit": "nM"}, {"measurement": "TGI", "setting": "SK-MEL-28 melanoma", "value": 9.29, "unit": "µM"}, {"measurement": "GI50", "setting": "RXF 393 renal", "value": 247, "unit": "nM"}, {"measurement": "TGI", "setting": "RXF 393 renal", "value": 888, "unit": "nM"}, {"measurement": "GI50", "setting": "NCI/ADR-RES ovarian", "value": "> 100", "unit": "µM"}, {"measurement": "TGI", "setting": "NCI/ADR-RES ovarian", "value": "> 100", "unit": "µM"}, {"measurement": "GI50", "setting": "MCF7 breast", "value": 300, "unit": "nM"}, {"measurement": "TGI", "setting": "MCF7 breast", "value": "> 100", "unit": "µM"}, {"measurement": "GI50", "setting": "HOP-62 NSCLC", "value": 544, "unit": "nM"}, {"measurement": "TGI", "setting": "HOP-62 NSCLC", "value": 51, "unit": "µM"}, {"measurement": "GI50", "setting": "SR leukemia", "value": 427, "unit": "nM"}, {"measurement": "TGI", "setting": "SR leukemia", "value": 3.01, "unit": "µM"}, {"measurement": "GI50", "setting": "NCI-H226 lung", "value": 1380, "unit": "nM"}, {"measurement": "TGI", "setting": "NCI-H226 lung", "value": 7.3, "unit": "µM"}, {"measurement": "GI50", "setting": "OVCAR-4 ovarian", "value": 1040, "unit": "nM"}, {"measurement": "TGI", "setting": "OVCAR-4 ovarian", "value": "> 100", "unit": "µM"}, {"measurement": "GI50", "setting": "SNB-19 CNS", "value": 857, "unit": "nM"}, {"measurement": "TGI", "setting": "SNB-19 CNS", "value": "> 100", "unit": "µM"}]}]}
